Assay results published in patent publication US9669050B2, “Composition for prevention or treatment of hyperlipidemia, fatty liver or obesity” (BENEBIOSIS CO., LTD., priority 2008, dated 2017).
Entries after “also recorded” stand apart in the source; their conditions may differ.

What was measured:
high-fat diet SD rats [1] = assay: Serum lipid levels in high-fat diet rats; assay type: in vivo, rat; conditions: HD + SL 1 mg/kg
Method: (§1) Blood was taken from the liver of the C56BL/6 male mice. The blood was coagulated, centrifuged for 15 minutes at 13,000 rpm, and kept at −20° C. until serum analysis. High-density lipoprotein (HDL)-cholesterol level was measured using an HDL kit (YD Diagnostics, Korea). Triglyceride (TG) was analyzed using a TG kit (YD Diagnostics) based on enzymologic method. Total cholesterol was analyzed using a cholesterol E kit (YD Diagnostics). Low-density lipoprotein (LDL)-cholesterol level was calculated from triglyceride level, total cholesterol level and HDL-cholesterol level according to Equation 1: LDL-cholesterol=total cholesterol−{[…]} Equation 1
Blood was taken from the liver of the SD rats, and lipid levels were analyzed in the same manner as the experiment with the C57BL/6 male mice.

[2] = system: high-fat diet C56BL/6 male mice; assay: Body weight change and food intake of high-fat diet mice; assay type: in vivo, mouse; conditions: for Weight increase / Final weight: peritoneal injection every day; for Comparison of body weight increase, SL vs. ND: compared to normal diet mice
Method: 4 week-old C56BL/6 male mice were purchased from Dooyeul Biotech (Korea). Water was allowed freely and commercially available pellet feed (Dooyeul Biotech, Korea) was given for a week. The mice were grouped into six groups (six per each group) as follows: ND, normal diet group (normal group); HD, high-fat (60% fat) diet [purchased from Research Diets (New Brunswick, USA)] group (control group); and HD+SL (0.1 mg/kg), HD+SL (0.5 mg/kg), HD+SL (1.0 mg/kg) and HD+SL (5.0 mg/kg), high-fat diet groups treated with sialyllactose (SL, Sigma). Sialyllactose or PBS was administered every day by peritoneal injection. The mice were kept in cages for 50 days and sacrificed after fasting for 12 hours. Food intake and body weight change were measured every 7 days. 3′-Sialyllactose (3′-N-acetylneuraminyl-D-lactose, 3′-sialyl-D-lactose or α-NeuNAc-(2→3)-β-D-Gal-(1→4)-D-Glc) and 6′-sialyllactose (6′-N-acetylneuraminyl-lactose, 6′-sialyl-D-lactose or α-NeuNAc-(2→6)-β-D-Gal-(1→4)-D-Glc) were purchased from Sigma-Aldrich.

[3] = system: high-fat diet C56BL/6 male mice; assay: Improvement of fatty liver in high-fat diet mice (dissection, observation); assay type: in vivo, mouse; conditions: peritoneally administered, FIG. 4
Source text: In order to investigate 3′-SL's effect of improving fatty liver, high-fat diet C56BL/6 male mice were dissected and the liver and other organs were observed.

high-fat diet SD rats [4] = assay: Body weight change, food and water intake of high-fat diet rats; assay type: in vivo, rat; conditions: orally administered every day, 7 weeks
Method: 4 week-old Sprague-Dawley (SD) rats were purchased from Dooyeul Biotech (Korea). Water was allowed freely and commercially available pellet feed (Dooyeul Biotech, Korea) was given for a week. The rats were grouped into four groups (six per each group) as follows: ND, normal diet group (normal group); HD, high-fat (60% fat) diet [purchased from Research Diets (New Brunswick, USA)] group (control group); and HD+SL (1 mg/kg) and HD+SL (5 mg/kg), high-fat diet groups treated with SL (Sigma). 3′-SL or deionized water (DW) was orally administered every day. The mice were kept in cages for 7 weeks and sacrificed after fasting for 12 hours. Food intake and body weight change were measured every 5 days.

[5] = system: high-fat diet C56BL/6 male mice; assay: Serum lipid and leptin levels in high-fat diet mice; assay type: in vivo, mouse; conditions: for Leptin / HDL-cholesterol / HDL/TC / LDL/TC / Total cholesterol (TC) / Triglyceride / LDL-cholesterol: peritoneal injection every day, 50 days; for Leptin: ELISA; for HDL-cholesterol / HDL/TC / LDL/TC / Total cholesterol (TC) / Triglyceride / LDL-cholesterol: serum; for LDL-cholesterol: calculated by Equation 1
Method: as §1
Leptin level was measured using a mouse leptin ELISA kit (Millipore) and a rat leptin ELISA kit (Millipore).

high-fat diet SD rats [6] = assay: Subcutaneous, perirenal and retroperitoneal fat weight in high-fat diet rats; assay type: in vivo, rat; conditions: orally administered for 6 weeks, FIG. 7
Method: As described above, 4 week-old SD rats were treated with high-fat diet and 3′-SL for 6 weeks. Then, subcutaneous fat, perirenal fat and retroperitoneal fat were isolated from the rats and weighed.

high-fat diet SD rats [7] = assay: Improvement of fatty liver in high-fat diet rats (dissection, observation); assay type: in vivo, rat; conditions: orally administered, FIGS. 8a and 8b
Source text: In order to investigate 3′-SL's effect of improving fatty liver, high-fat diet SD rats were dissected and the liver and other organs were observed.

[8] = high-fat diet + SL 5 mg/kg peritoneally injected, 50 days

## CC(=O)N[C@H]1[C@H]([C@H](O)[C@H](O)CO)O[C@@](O[C@H]2[C@@H](O)[C@@H](CO)O[C@@H](O[C@H]3[C@H](O)[C@@H](O)C(O)O[C@@H]3CO)[C@@H]2O)(C(=O)O)C[C@@H]1O (stereo partly drawn) [3′-SL, α-NeuNAc-(2→3)-β-D-Gal-(1→4)-D-Glc]
high-fat diet SD rats [1]; compared to the control group
  effect on serum lipid levels (in words): higher HDL-cholesterol level and lower LDL-cholesterol, total cholesterol and triglyceride levels as compared to the control group
high-fat diet SD rats [1]; oral, serum
  HDL-cholesterol: 88.73 ± 1.32
  HDL/total cholesterol: 0.52 ± 0.04
  LDL/total cholesterol: 0.34 ± 0.03
  Total cholesterol: 171.44 ± 12.8
  Triglyceride: 149.00 ± 3.86
high-fat diet SD rats [1]; oral, serum, calculated by Equation 1
  LDL-cholesterol: 57.91 ± 1.39
[2]; HD + SL 0.1 mg/kg
  Weight increase: 8.94 ± 0.43 g/50 day
[2]; HD + SL 0.1 mg/kg, 50 days
  Final weight: 31.34 ± 1.15 g
[2]; HD + SL 0.5 mg/kg
  Weight increase: 7.52 ± 0.74 g/50 day
[2]; HD + SL 0.5 mg/kg, 50 days
  Final weight: 30.42 ± 0.51 g
[2]; HD + SL 1.0 mg/kg
  Weight increase: 5.60 ± 0.77 g/50 day
[2]; HD + SL 1.0 mg/kg, 50 days
  Final weight: 29.00 ± 0.82 g
[2]; HD + SL 5.0 mg/kg
  Weight increase: 6.68 ± 0.28 g/50 day
[2]; HD + SL 5.0 mg/kg, 50 days
  Final weight: 28.68 ± 0.95 g
[2]; [8]
  Comparison of body weight increase, SL vs. ND: 51.5%
[3]
  fatty liver, fat accumulation in liver and other organs (in words): fat accumulation was not observed in the liver or other organs
high-fat diet SD rats [4]; HD + SL 1.0 mg/kg
  Final weight: 454.17 ± 10.37 g
  Weight increase: 4.05 ± 0.16 g/day
high-fat diet SD rats [4]; HD + SL 5.0 mg/kg
  Final weight: 443.33 ± 19.56 g
  Weight increase: 3.66 ± 0.32 g/day
[5]; HD + SL 0.1 mg/kg
  Leptin: 66.59 ± 43.57 ng/mL
  HDL-cholesterol: 53.27 ± 5.08 mg/dL
  HDL/TC: 0.40 ± 0.04
  LDL/TC: 0.43 ± 0.02
  Total cholesterol (TC): 135.05 ± 13.58 mg/dL
  Triglyceride: 166.78 ± 6.60 mg/dL
  LDL-cholesterol: 58.16 ± 3.74 mg/dL
[5]; HD + SL 0.5 mg/kg
  Leptin: 38.73 ± 5.58 ng/mL
  HDL-cholesterol: 55.74 ± 3.18 mg/dL
  HDL/TC: 0.51 ± 0.02
  LDL/TC: 0.45 ± 0.12
  Total cholesterol (TC): 108.25 ± 3.06 mg/dL
  Triglyceride: 112.99 ± 8.16 mg/dL
  LDL-cholesterol: 48.43 ± 13.91 mg/dL
[5]; HD + SL 1.0 mg/kg
  Leptin: 19.29 ± 14.24 ng/mL
  HDL-cholesterol: 49.29 ± 3.40 mg/dL
  HDL/TC: 0.39 ± 0.01
  LDL/TC: 0.37 ± 0.12
  Total cholesterol (TC): 126.30 ± 7.75 mg/dL
  Triglyceride: 94.28 ± 5.66 mg/dL
  LDL-cholesterol: 46.03 ± 13.79 mg/dL
[5]; HD + SL 5.0 mg/kg
  Leptin: 6.64 ± 2.93 ng/mL
  HDL-cholesterol: 48.97 ± 1.62 mg/dL
  HDL/TC: 0.44 ± 0.05
  LDL/TC: 0.27 ± 0.04
  Total cholesterol (TC): 112.97 ± 12.54 mg/dL
  Triglyceride: 89.78 ± 4.31 mg/dL
  LDL-cholesterol: 29.91 ± 2.69 mg/dL
high-fat diet SD rats [6]
  subcutaneous, perirenal and retroperitoneal fat weight (in words): decreased subcutaneous fat, perirenal fat and retroperitoneal fat in a dose-dependent manner
high-fat diet SD rats [7]
  fatty liver, fat accumulation in liver and other organs (in words): fat accumulation reduced markedly

## CC(=O)N[C@H]1[C@H]([C@H](O)[C@H](O)CO)O[C@@](OC[C@H]2O[C@@H](O[C@H]3[C@H](O)[C@@H](O)[C@H](O)O[C@@H]3CO)[C@H](O)[C@@H](O)[C@H]2O)(C(=O)O)C[C@@H]1O [6′-SL, α-NeuNAc-(2→6)-β-D-Gal-(1→4)-D-Glc]
[2]; HD + SL 0.1 mg/kg
  Weight increase: 7.82 ± 1.44(*) g/50 day
[2]; HD + SL 0.1 mg/kg, 50 days
  Final weight: 26.82 ± 0.92 g
[2]; HD + SL 0.5 mg/kg
  Weight increase: 7.68 ± 2.82(*) g/50 day
[2]; HD + SL 0.5 mg/kg, 50 days
  Final weight: 25.74 ± 1.93 g
[2]; HD + SL 1.0 mg/kg
  Weight increase: 7.99 ± 1.15(*) g/50 day
[2]; HD + SL 1.0 mg/kg, 50 days
  Final weight: 25.62 ± 1.33 g
[2]; HD + SL 5.0 mg/kg
  Weight increase: 6.88 ± 1.80(*) g/50 day
[2]; HD + SL 5.0 mg/kg, 50 days
  Final weight: 25.92 ± 0.95 g
[2]; [8]
  body weight decrease compared to normal diet mice: 4.7%
  Comparison of body weight increase, SL vs. ND: −4.7%
[2]; high-fat diet mice, peritoneal injection, 50 days
  effect on body weight increase (in words): significant decrease in body weight increase; also recorded: more effective in body weight loss than 3′-SL; also recorded: less body weight increase than the normal diet mice
[5]; HD + SL 0.1 mg/kg
  Leptin: 11.50 ± 3.72 ng/mL
  HDL-cholesterol: 70.71 ± 14.15 mg/dL
  HDL/TC: 0.55 ± 0.08(*)
  LDL/TC: 0.33 ± 0.07(*)
  Total cholesterol (TC): 126.68 ± 10.7 mg/dL
  Triglyceride: 74.48 ± 3.77 mg/dL
  LDL-cholesterol: 41.07 ± 6.34 mg/dL
[5]; HD + SL 0.5 mg/kg
  Leptin: 6.71 ± 0.93 ng/mL
  HDL-cholesterol: 76.33 ± 10.53 mg/dL
  HDL/TC: 0.58 ± 0.05(*)
  LDL/TC: 0.31 ± 0.05(*)
  Total cholesterol (TC): 130.54 ± 8.10 mg/dL
  Triglyceride: 71.05 ± 5.88 mg/dL
  LDL-cholesterol: 40.00 ± 4.25 mg/dL
[5]; HD + SL 1.0 mg/kg
  Leptin: 5.15 ± 1.61 ng/mL
  HDL-cholesterol: 57.44 ± 0.87 mg/dL
  HDL/TC: 0.53 ± 0.03(*)
  LDL/TC: 0.36 ± 0.02(*)
  Total cholesterol (TC): 109.14 ± 9.86 mg/dL
  Triglyceride: 60.69 ± 7.69 mg/dL
  LDL-cholesterol: 39.56 ± 8.53 mg/dL
[5]; HD + SL 5.0 mg/kg
  Leptin: 6.47 ± 1.64 ng/mL
  HDL-cholesterol: 62.73 ± 8.58 mg/dL
  HDL/TC: 0.54 ± 0.05(*)
  LDL/TC: 0.35 ± 0.10(*)
  Total cholesterol (TC): 115.36 ± 14.9 mg/dL
  Triglyceride: 61.34 ± 3.84 mg/dL
  LDL-cholesterol: 40.36 ± 2.69 mg/dL
[5]; high-fat diet mice, compared to the high-fat diet group
  effect on LDL-cholesterol, total cholesterol, triglyceride and leptin levels (in words): much better effect of reducing LDL-cholesterol, total cholesterol, triglyceride and leptin levels than 3′-SL
